In US9980943B2, “Methods of treating muscular dystrophy” (BOARD OF REGENTS OF THE NEVADA SYSTEM OF HIGHER EDUCATION, …, priority 2013, dated 2018):

Assays:
Assay type in all cases: cell-based, mouse
[1] = test system: α7 integrin (LacZ reporter in α7βgal+/− myoblasts); assay: Myoblast α7+/LacZ integrin FDG assay (Burkin assay in myoblasts, 96-well); conditions: 96-well; for Burkin Assay in Myoblasts, signal relative to DMSO: α7+/LacZ myoblasts; for Burkin Assay in Myoblasts, value relative to DMSO: SU9516 analogs, N=3-6
[2] = test system: α7 integrin (LacZ reporter in α7+/LacZ myotubes); assay: Myotube α7 integrin FDG assay (Burkin assay in myotubes, 96-well); conditions: for Burkin Assay in Myotubes, value relative to DMSO: SU9516 analogs, 96-well, N=3-6
[3] = test system: β-galactosidase in CMV-LacZ C2C12 myoblasts; assay: CMV-LacZ secondary screen in C2C12 myoblasts (β-Gal stabilizing assay); conditions: for CMV-LACZ in Myoblasts (β-galactosidase activity relative to DMSO): CMV-LacZ C2C12 myoblasts; for CMV-LACZ in Myoblasts, value relative to DMSO: SU9516 analogs, C2C12 CMV-LacZ, N=2
How it was run: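 CMV-LacZ C2C12 line (clonal, FDG-screened); myoblasts/myotubes dosed 0.5–40 μM (0.5, 1, 5, 10, 20, 40 μM); n=2 per point; β-gal stabilization read-out.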

[4] = test system: β-galactosidase in CMV-LacZ C2C12 myotubes; assay: CMV-LacZ secondary screen in C2C12 myotubes (β-Gal stabilizing assay); conditions: for CMV-LACZ in Myotubes, signal relative to DMSO: C2C12 CMV-LacZ myotubes, fold relative to DMSO; for CMV-LACZ in Myotubes, value relative to DMSO: SU9516 analogs, C2C12 CMV-LacZ, N=2
How it was run: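 A secondary screen identifies compounds that stabilize β-gal independently of the native promoter, using CMV-LacZ C2C12 cells. Curves span 0.5–40 μM at six levels, in duplicate.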

SMILES: O=c1[nH]c(SCc2ccc(Cl)cc2)nc2ccsc12 [MLS000755214-01]
- Burkin Assay in Myoblasts, signal relative to DMSO ([1]; 0.5 uM): 1.077
- Burkin Assay in Myoblasts, signal relative to DMSO ([1]; 1 uM): 1.021
- Burkin Assay in Myoblasts, signal relative to DMSO ([1]; 5 uM): 0.9757
- Burkin Assay in Myoblasts, signal relative to DMSO ([1]; 10 uM): 0.9635
- Burkin Assay in Myoblasts, signal relative to DMSO ([1]; 20 uM): 0.8448
- Burkin Assay in Myoblasts, signal relative to DMSO ([1]; 40 uM): 0.861
- Burkin Assay in Myotubes, α7 integrin LacZ reporter signal relative to DMSO ([2]; 0.5 uM): 1.01
- Burkin Assay in Myotubes, α7 integrin LacZ reporter signal relative to DMSO ([2]; 1 uM): 0.9661
- Burkin Assay in Myotubes, α7 integrin LacZ reporter signal relative to DMSO ([2]; 5 uM): 0.9321
- Burkin Assay in Myotubes, α7 integrin LacZ reporter signal relative to DMSO ([2]; 10 uM): 1.0353
- Burkin Assay in Myotubes, α7 integrin LacZ reporter signal relative to DMSO ([2]; 20 uM): 0.9655
- Burkin Assay in Myotubes, α7 integrin LacZ reporter signal relative to DMSO ([2]; 40 uM): 0.8312
- CMV-LACZ in Myoblasts (β-galactosidase activity relative to DMSO) ([3]; 0.5 uM): 1.0190
- CMV-LACZ in Myoblasts (β-galactosidase activity relative to DMSO) ([3]; 1 uM): 1.1650
- CMV-LACZ in Myoblasts (β-galactosidase activity relative to DMSO) ([3]; 5 uM): 0.9281
- CMV-LACZ in Myoblasts (β-galactosidase activity relative to DMSO) ([3]; 10 uM): 1.0994
- CMV-LACZ in Myoblasts (β-galactosidase activity relative to DMSO) ([3]; 20 uM): 1.0835
- CMV-LACZ in Myoblasts (β-galactosidase activity relative to DMSO) ([3]; 40 uM): 0.8172
- CMV-LACZ in Myotubes, signal relative to DMSO ([4]; 0.5 uM): 0.9543
- CMV-LACZ in Myotubes, signal relative to DMSO ([4]; 1 uM): 0.8600
- CMV-LACZ in Myotubes, signal relative to DMSO ([4]; 5 uM): 1.0763
- CMV-LACZ in Myotubes, signal relative to DMSO ([4]; 10 uM): 1.0591
- CMV-LACZ in Myotubes, signal relative to DMSO ([4]; 20 uM): 0.9280
- CMV-LACZ in Myotubes, signal relative to DMSO ([4]; 40 uM): 1.0190

SMILES: O=C(O)c1csc(-c2cccs2)n1 [MLS000760876-01]
- Burkin Assay in Myoblasts, signal relative to DMSO ([1]; 0.5 uM): 1.0287
- Burkin Assay in Myoblasts, signal relative to DMSO ([1]; 1 uM): 0.9856
- Burkin Assay in Myoblasts, signal relative to DMSO ([1]; 5 uM): 1.812
- Burkin Assay in Myoblasts, signal relative to DMSO ([1]; 10 uM): 0.9113
- Burkin Assay in Myoblasts, signal relative to DMSO ([1]; 20 uM): 1.102
- Burkin Assay in Myoblasts, signal relative to DMSO ([1]; 40 uM): 0.9504
- Burkin Assay in Myotubes, α7 integrin LacZ reporter signal relative to DMSO ([2]; 0.5 uM): 1.2427
- Burkin Assay in Myotubes, α7 integrin LacZ reporter signal relative to DMSO ([2]; 1 uM): 1.256
- Burkin Assay in Myotubes, α7 integrin LacZ reporter signal relative to DMSO ([2]; 5 uM): 1.249
- Burkin Assay in Myotubes, α7 integrin LacZ reporter signal relative to DMSO ([2]; 10 uM): 0.9755
- Burkin Assay in Myotubes, α7 integrin LacZ reporter signal relative to DMSO ([2]; 20 uM): 0.8634
- Burkin Assay in Myotubes, α7 integrin LacZ reporter signal relative to DMSO ([2]; 40 uM): 0.8993
- CMV-LACZ in Myoblasts (β-galactosidase activity relative to DMSO) ([3]; 0.5 uM): 0.9069
- CMV-LACZ in Myoblasts (β-galactosidase activity relative to DMSO) ([3]; 1 uM): 1.0546
- CMV-LACZ in Myoblasts (β-galactosidase activity relative to DMSO) ([3]; 5 uM): 0.8293
- CMV-LACZ in Myoblasts (β-galactosidase activity relative to DMSO) ([3]; 10 uM): 0.8973
- CMV-LACZ in Myoblasts (β-galactosidase activity relative to DMSO) ([3]; 20 uM): 0.9396
- CMV-LACZ in Myoblasts (β-galactosidase activity relative to DMSO) ([3]; 40 uM): 0.8504
- CMV-LACZ in Myotubes, signal relative to DMSO ([4]; 0.5 uM): 1.0248
- CMV-LACZ in Myotubes, signal relative to DMSO ([4]; 1 uM): 1.1010
- CMV-LACZ in Myotubes, signal relative to DMSO ([4]; 5 uM): 1.1074
- CMV-LACZ in Myotubes, signal relative to DMSO ([4]; 10 uM): 0.9789
- CMV-LACZ in Myotubes, signal relative to DMSO ([4]; 20 uM): 0.9482
- CMV-LACZ in Myotubes, signal relative to DMSO ([4]; 40 uM): 1.2565

SMILES: COc1ccc2c(c1)C(=C(C#N)C#N)C(=O)N2CCc1ccccc1 [MLS000763074-01]
- Burkin Assay in Myoblasts, value relative to DMSO ([1]; 0.5 uM): 1.199
- Burkin Assay in Myoblasts, value relative to DMSO ([1]; 1 uM): 1.067
- Burkin Assay in Myoblasts, value relative to DMSO ([1]; 5 uM): 0.843
- Burkin Assay in Myoblasts, value relative to DMSO ([1]; 10 uM): 1.134
- Burkin Assay in Myoblasts, value relative to DMSO ([1]; 20 uM): 0.6586
- Burkin Assay in Myoblasts, value relative to DMSO ([1]; 40 uM): 0.6085
- Burkin Assay in Myotubes, value relative to DMSO ([2]; 0.5 uM): 1.0274
- Burkin Assay in Myotubes, value relative to DMSO ([2]; 1 uM): 1.128
- Burkin Assay in Myotubes, value relative to DMSO ([2]; 5 uM): 1.043
- Burkin Assay in Myotubes, value relative to DMSO ([2]; 10 uM): 0.907
- Burkin Assay in Myotubes, value relative to DMSO ([2]; 20 uM): 0.1921
- Burkin Assay in Myotubes, value relative to DMSO ([2]; 40 uM): 0.2622
- CMV-LACZ in Myoblasts, value relative to DMSO ([3]; 0.5 uM): 0.8431
- CMV-LACZ in Myoblasts, value relative to DMSO ([3]; 1 uM): 0.8256
- CMV-LACZ in Myoblasts, value relative to DMSO ([3]; 5 uM): 1.1447
- CMV-LACZ in Myoblasts, value relative to DMSO ([3]; 10 uM): 1.1966
- CMV-LACZ in Myoblasts, value relative to DMSO ([3]; 20 uM): 1.2981
- CMV-LACZ in Myoblasts, value relative to DMSO ([3]; 40 uM): 1.6644
- CMV-LACZ in Myotubes, value relative to DMSO ([4]; 0.5 uM): 1.0089
- CMV-LACZ in Myotubes, value relative to DMSO ([4]; 1 uM): 0.8593
- CMV-LACZ in Myotubes, value relative to DMSO ([4]; 5 uM): 1.0487
- CMV-LACZ in Myotubes, value relative to DMSO ([4]; 10 uM): 0.9645
- CMV-LACZ in Myotubes, value relative to DMSO ([4]; 20 uM): 1.7671
- CMV-LACZ in Myotubes, value relative to DMSO ([4]; 40 uM): 1.9682
